According to the kinase profiling compilation of Christmann-Franck et al. (2016):

Experiments:
Test in all cases: KINOMEscan competition binding
Conditions in all cases: compound 10.0 µM
[1] = biological target: CDK17 (human) (UniProt Q00537)
[2] = biological target: NEK2 (human) (UniProt P51955)
[3] = biological target: PRKCD (human) (UniProt Q05655)
[4] = biological target: PKN1 (human) (UniProt Q16512)
[5] = biological target: CSNK1G1 (human) (UniProt Q9HCP0)
[6] = biological target: STK17B (human) (UniProt O94768)
[7] = biological target: STK17A (human) (UniProt Q9UEE5)
[8] = biological target: STK16 (human) (UniProt O75716)
[9] = biological target: MST1R (human) (UniProt Q04912)
[10] = biological target: CDC2L2 (human) (UniProt Q9UQ88)
[11] = biological target: JAK1 JH2 pseudokinase (human) (UniProt P23458)
Chain of JAK1 JH2 pseudokinase (human) (P23458 whole entry, looked up): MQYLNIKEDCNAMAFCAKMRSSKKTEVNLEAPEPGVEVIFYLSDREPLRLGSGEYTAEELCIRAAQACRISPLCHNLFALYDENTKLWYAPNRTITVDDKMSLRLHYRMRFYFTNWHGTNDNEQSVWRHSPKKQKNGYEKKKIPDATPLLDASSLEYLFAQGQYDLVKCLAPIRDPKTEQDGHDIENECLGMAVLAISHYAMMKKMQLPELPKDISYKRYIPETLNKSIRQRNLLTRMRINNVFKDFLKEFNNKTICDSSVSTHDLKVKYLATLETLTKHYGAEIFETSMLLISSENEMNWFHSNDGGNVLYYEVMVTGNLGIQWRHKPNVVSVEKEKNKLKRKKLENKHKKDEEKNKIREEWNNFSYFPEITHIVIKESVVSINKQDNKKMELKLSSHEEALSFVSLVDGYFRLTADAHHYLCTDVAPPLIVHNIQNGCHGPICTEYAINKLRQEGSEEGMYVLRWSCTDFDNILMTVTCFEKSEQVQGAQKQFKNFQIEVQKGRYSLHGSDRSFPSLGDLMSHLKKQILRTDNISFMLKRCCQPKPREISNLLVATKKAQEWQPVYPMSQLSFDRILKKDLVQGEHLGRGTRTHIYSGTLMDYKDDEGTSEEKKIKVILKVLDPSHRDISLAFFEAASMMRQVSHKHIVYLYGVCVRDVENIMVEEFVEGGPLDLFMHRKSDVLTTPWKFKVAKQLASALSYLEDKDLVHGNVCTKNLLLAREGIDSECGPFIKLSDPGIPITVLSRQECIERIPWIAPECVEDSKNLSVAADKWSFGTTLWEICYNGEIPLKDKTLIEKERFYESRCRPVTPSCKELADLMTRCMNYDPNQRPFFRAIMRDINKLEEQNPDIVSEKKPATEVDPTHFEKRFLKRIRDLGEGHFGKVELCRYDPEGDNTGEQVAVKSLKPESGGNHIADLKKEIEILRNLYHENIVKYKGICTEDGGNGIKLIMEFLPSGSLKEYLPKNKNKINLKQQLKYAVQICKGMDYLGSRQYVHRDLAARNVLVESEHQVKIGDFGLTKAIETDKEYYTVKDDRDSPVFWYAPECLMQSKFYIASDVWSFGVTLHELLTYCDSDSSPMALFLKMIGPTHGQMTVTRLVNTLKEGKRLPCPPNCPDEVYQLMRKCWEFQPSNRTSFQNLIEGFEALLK

[12] = biological target: MAPK1 (human) (UniProt P28482)
[13] = biological target: STK32C (human) (UniProt Q86UX6)
[14] = biological target: LATS1 (human) (UniProt O95835)
Chain of LATS1 (human) (O95835 whole entry, looked up): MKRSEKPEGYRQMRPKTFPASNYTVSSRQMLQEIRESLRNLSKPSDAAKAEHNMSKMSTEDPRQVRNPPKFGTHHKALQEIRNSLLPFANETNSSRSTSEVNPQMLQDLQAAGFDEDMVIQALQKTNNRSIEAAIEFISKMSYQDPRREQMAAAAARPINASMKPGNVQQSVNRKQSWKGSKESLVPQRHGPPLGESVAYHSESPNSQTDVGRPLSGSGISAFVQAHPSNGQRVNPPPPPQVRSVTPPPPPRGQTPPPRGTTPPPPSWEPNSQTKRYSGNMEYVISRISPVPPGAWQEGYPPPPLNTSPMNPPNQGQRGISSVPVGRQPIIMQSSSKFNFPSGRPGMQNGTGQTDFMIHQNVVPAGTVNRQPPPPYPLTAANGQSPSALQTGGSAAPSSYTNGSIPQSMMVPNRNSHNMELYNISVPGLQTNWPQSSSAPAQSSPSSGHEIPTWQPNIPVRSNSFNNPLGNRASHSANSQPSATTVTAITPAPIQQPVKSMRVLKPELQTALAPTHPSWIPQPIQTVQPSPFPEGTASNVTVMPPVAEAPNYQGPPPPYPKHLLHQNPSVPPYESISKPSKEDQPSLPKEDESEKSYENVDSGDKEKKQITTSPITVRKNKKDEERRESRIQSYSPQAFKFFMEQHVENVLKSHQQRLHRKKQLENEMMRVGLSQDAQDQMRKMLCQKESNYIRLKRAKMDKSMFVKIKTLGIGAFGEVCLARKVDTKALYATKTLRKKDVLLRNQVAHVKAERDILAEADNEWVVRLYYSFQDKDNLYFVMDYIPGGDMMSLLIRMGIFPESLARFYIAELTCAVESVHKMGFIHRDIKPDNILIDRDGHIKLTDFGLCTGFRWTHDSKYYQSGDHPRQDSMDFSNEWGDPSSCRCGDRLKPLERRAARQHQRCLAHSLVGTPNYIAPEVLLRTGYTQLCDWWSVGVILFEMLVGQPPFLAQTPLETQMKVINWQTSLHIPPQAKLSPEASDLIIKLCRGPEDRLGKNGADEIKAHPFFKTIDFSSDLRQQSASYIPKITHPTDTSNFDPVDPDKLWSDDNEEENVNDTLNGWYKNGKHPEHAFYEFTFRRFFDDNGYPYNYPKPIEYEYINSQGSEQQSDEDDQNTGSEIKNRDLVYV

[15] = biological target: FLT4 (human) (UniProt P35916)
Chain of FLT4 (human) (P35916 whole entry, looked up): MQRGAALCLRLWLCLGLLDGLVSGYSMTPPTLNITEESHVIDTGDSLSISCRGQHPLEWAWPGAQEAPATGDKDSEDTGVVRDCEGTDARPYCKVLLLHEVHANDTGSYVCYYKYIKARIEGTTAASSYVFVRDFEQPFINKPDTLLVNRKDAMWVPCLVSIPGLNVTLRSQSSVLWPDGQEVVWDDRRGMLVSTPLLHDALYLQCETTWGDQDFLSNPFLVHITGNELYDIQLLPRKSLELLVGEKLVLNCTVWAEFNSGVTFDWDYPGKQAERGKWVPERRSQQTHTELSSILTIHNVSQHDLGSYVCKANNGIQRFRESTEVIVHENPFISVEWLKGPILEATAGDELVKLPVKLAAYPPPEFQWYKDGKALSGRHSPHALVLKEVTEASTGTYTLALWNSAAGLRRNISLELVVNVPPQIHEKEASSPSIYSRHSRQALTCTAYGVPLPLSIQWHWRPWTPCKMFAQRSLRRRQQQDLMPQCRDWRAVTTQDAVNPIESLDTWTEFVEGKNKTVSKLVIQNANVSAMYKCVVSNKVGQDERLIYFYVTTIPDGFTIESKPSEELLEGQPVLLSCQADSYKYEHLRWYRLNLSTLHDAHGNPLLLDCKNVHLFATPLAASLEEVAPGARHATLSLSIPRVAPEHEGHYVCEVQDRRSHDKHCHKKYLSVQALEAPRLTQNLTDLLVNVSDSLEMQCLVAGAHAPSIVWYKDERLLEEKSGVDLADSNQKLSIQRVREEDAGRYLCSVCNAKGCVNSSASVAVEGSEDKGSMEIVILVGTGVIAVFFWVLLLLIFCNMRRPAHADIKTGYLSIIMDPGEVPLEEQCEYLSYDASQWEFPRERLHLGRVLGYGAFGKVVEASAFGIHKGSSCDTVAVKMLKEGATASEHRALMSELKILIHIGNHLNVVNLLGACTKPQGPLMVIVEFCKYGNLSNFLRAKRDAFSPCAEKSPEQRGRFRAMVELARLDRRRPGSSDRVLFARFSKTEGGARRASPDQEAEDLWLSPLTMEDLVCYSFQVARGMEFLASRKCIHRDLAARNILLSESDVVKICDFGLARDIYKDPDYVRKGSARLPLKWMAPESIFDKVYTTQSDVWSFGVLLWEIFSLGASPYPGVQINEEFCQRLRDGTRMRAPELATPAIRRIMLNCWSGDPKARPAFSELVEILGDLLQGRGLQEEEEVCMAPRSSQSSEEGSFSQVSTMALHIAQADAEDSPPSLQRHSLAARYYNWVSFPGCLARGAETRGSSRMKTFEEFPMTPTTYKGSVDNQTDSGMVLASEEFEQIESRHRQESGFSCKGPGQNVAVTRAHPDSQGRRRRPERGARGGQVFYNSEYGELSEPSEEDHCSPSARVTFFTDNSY

[16] = biological target: DMPK (human) (UniProt Q09013)
[17] = biological target: SGK110 (human) (UniProt P0C264)
Chain of SGK110 (human) (P0C264 whole entry, looked up): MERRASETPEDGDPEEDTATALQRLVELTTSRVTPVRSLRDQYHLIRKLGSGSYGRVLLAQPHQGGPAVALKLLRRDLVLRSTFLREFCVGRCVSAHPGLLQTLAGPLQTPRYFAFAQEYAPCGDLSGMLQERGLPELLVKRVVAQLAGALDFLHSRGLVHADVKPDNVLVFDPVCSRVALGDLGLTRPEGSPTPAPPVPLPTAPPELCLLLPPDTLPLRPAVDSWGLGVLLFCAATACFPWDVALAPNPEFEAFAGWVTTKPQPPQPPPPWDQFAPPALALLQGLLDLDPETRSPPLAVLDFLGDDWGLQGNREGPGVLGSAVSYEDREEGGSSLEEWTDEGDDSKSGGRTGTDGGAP

[18] = biological target: AAK1 (human) (UniProt Q2M2I8)
[19] = biological target: PRKCE (human) (UniProt Q02156)
[20] = biological target: FES (human) (UniProt P07332)
[21] = biological target: CLK1 (human) (UniProt P49759)
[22] = biological target: EPHB2 (human) (UniProt P29323)
[23] = biological target: CHEK1 (human) (UniProt O14757)
[24] = biological target: JAK3 JH1 catalytic (human) (UniProt P52333)
[25] = test system: FLT3 (human), P36888 [ITD]
[26] = biological target: RPS6KA1 KD1 (human) (UniProt Q15418)
[27] = biological target: BLK (human) (UniProt P51451)
[28] = biological target: AKT3 (human) (UniProt Q9Y243)
[29] = biological target: LATS2 (human) (UniProt Q9NRM7)
[30] = biological target: NEK1 (human) (UniProt Q96PY6)
[31] = biological target: PAK2 (human) (UniProt Q13177)
[32] = biological target: EPHB3 (human) (UniProt P54753)
[33] = biological target: MAP3K11 (human) (UniProt Q16584)
[34] = test system: EIF2AK4 KD2 (human), Q9P2K8 [S808G]
[35] = biological target: BMPR1B (human) (UniProt O00238)
Chain of BMPR1B (human) (O00238 whole entry, looked up): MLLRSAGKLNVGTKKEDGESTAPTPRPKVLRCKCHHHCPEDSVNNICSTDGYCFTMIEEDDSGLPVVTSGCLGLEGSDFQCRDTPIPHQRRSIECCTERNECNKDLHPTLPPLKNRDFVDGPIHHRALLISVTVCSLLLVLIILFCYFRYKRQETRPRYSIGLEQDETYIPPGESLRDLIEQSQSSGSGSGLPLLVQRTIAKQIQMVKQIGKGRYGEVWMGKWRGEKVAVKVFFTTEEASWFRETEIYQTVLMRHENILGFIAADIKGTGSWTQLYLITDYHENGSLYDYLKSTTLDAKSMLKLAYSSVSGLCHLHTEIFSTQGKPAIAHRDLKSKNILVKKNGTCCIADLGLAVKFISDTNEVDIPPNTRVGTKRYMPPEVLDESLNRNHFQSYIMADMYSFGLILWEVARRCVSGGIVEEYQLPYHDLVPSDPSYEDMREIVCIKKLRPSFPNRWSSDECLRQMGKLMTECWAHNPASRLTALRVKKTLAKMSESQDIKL

[36] = biological target: SRPK1 (human) (UniProt Q96SB4)
[37] = biological target: CAMK2D (human) (UniProt Q13557)
Chain of CAMK2D (human) (Q13557 whole entry, looked up): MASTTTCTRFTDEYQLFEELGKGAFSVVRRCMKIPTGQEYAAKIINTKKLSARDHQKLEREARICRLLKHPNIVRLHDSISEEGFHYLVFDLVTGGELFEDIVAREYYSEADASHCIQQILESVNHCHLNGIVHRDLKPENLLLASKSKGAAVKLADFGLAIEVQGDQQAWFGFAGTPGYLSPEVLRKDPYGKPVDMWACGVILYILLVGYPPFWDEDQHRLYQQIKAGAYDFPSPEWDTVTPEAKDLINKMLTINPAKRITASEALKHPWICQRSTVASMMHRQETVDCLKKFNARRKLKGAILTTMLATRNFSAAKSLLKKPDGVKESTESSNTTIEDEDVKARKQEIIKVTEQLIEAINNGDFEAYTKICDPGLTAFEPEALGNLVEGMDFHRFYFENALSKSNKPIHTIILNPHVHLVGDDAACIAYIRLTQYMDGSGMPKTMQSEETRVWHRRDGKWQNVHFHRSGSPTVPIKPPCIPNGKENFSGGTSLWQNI

[38] = biological target: CAMKK2 (human) (UniProt Q96RR4)
[39] = biological target: MARK1 (human) (UniProt Q9P0L2)
[40] = biological target: ANKK1 (human) (UniProt Q8NFD2)

SMILES | kinase still bound, per cent of control [1] [%] | kinase still bound, per cent of control [2] [%] | kinase still bound, per cent of control [3] [%] | kinase still bound, per cent of control [4] [%] | kinase still bound, per cent of control [5] [%] | kinase still bound, per cent of control [6] [%] | kinase still bound, per cent of control [7] [%] | kinase still bound, per cent of control [8] [%] | kinase still bound, per cent of control [9] [%] | kinase still bound, per cent of control [10] [%] | kinase still bound, per cent of control [11] [%] | kinase still bound, per cent of control [12] [%] | kinase still bound, per cent of control [13] [%] | kinase still bound, per cent of control [14] [%] | kinase still bound, per cent of control [15] [%] | kinase still bound, per cent of control [16] [%] | kinase still bound, per cent of control [17] [%] | kinase still bound, per cent of control [18] [%] | kinase still bound, per cent of control [19] [%] | kinase still bound, per cent of control [20] [%] | other results
O=C(NC1CC1)c1cccc(-c2ccc3c(NC(=O)C4CC4)n[nH]c3c2)c1 | 37 | 80 | 100 | 100 | 85 | 100 | 96 | 3 | 90 | 85 | 84 | 100 | 89 | 61 | 100 | 100 | 100 | 10 | 100 | 100 | kinase still bound, per cent of control [21]: 77%; kinase still bound, per cent of control [22]: 98%; kinase still bound, per cent of control [23]: 100%; kinase still bound, per cent of control [24]: 27%; kinase still bound, per cent of control [25]: 30%; kinase still bound, per cent of control [26]: 81%; kinase still bound, per cent of control [27]: 100%; kinase still bound, per cent of control [28]: 100%; kinase still bound, per cent of control [29]: 85%; kinase still bound, per cent of control [30]: 86%; kinase still bound, per cent of control [31]: 69%; kinase still bound, per cent of control [32]: 100%; kinase still bound, per cent of control [33]: 100%; kinase still bound, per cent of control [34]: 96%; kinase still bound, per cent of control [35]: 91%; kinase still bound, per cent of control [36]: 43%; kinase still bound, per cent of control [37]: 84%; kinase still bound, per cent of control [38]: 94%; kinase still bound, per cent of control [39]: 96%; kinase still bound, per cent of control [40]: 8%
C=CC(=O)Nc1cccc(Nc2nc(N[C@H]3CC[C@H](N(C)C)CC3)nc3c2ncn3C(C)C)c1 | 100 | 94 | 83 | 22 | 28 | 22 | 100 | 72 | 100 | 98 | 76 | 93 | 98 | 100 | 58 | 8.8 | 88 | 45 | 52 | 85 | kinase still bound, per cent of control [21]: 1%; kinase still bound, per cent of control [22]: 87%; kinase still bound, per cent of control [23]: 87%; kinase still bound, per cent of control [24]: 89%; kinase still bound, per cent of control [25]: 1%; kinase still bound, per cent of control [26]: 9.4%; kinase still bound, per cent of control [27]: 17%; kinase still bound, per cent of control [28]: 91%; kinase still bound, per cent of control [29]: 70%; kinase still bound, per cent of control [30]: 100%; kinase still bound, per cent of control [31]: 61%; kinase still bound, per cent of control [32]: 83%; kinase still bound, per cent of control [33]: 24%; kinase still bound, per cent of control [34]: 59%; kinase still bound, per cent of control [35]: 31%; kinase still bound, per cent of control [36]: 52%; kinase still bound, per cent of control [37]: 53%; kinase still bound, per cent of control [38]: 25%; kinase still bound, per cent of control [39]: 94%; kinase still bound, per cent of control [40]: 62%
Nc1ccc(-c2ccc3ncc4ccc(=O)n(-c5cccc(C(F)(F)F)c5)c4c3c2)cn1 | 98 | 100 | 88 | 100 | 100 | 89 | 100 | 59 | 90 | 98 | 13 | 100 | 100 | 100 | 85 | 95 | 100 | 71 | 69 | 100 | kinase still bound, per cent of control [21]: 12%; kinase still bound, per cent of control [22]: 98%; kinase still bound, per cent of control [23]: 86%; kinase still bound, per cent of control [24]: 100%; kinase still bound, per cent of control [25]: 45%; kinase still bound, per cent of control [26]: 100%; kinase still bound, per cent of control [27]: 98%; kinase still bound, per cent of control [28]: 100%; kinase still bound, per cent of control [29]: 100%; kinase still bound, per cent of control [30]: 87%; kinase still bound, per cent of control [31]: 100%; kinase still bound, per cent of control [32]: 100%; kinase still bound, per cent of control [33]: 96%; kinase still bound, per cent of control [34]: 100%; kinase still bound, per cent of control [35]: 86%; kinase still bound, per cent of control [36]: 100%; kinase still bound, per cent of control [37]: 85%; kinase still bound, per cent of control [38]: 99%; kinase still bound, per cent of control [39]: 100%; kinase still bound, per cent of control [40]: 100%
